In article PMC11123841, “Discovery and Synthesis of Hydroxy-L-Proline Blockers of the Neutral Amino Acid Transporters SLC1A4 (ASCT1) and SLC1A5 (ASCT2)” (Molecules, 2024):
Values joined by “and” are separate entries in the source; they are usually repeats but may differ in a detail not shown here. Equal values may be shown once. Read-outs that look alike come from different tables or passages of the source.

Columns and labels:
SLC1A5 [1] = target: T1, SLC1A5 (Mus musculus, UniProt P51912); assay: [3H]L-Gln radiolabeled uptake competition in oocytes; assay type: cell-based; settings: 10 µM [3H]L-Gln uptake in SLC1A5; read-out: IC50, block of [3H]L-Gln uptake
T1 construct: expressed in transfected cells; host or cells: Xenopus laevis oocytes (cRNA injection)
T1 sequence (P51912 1-553): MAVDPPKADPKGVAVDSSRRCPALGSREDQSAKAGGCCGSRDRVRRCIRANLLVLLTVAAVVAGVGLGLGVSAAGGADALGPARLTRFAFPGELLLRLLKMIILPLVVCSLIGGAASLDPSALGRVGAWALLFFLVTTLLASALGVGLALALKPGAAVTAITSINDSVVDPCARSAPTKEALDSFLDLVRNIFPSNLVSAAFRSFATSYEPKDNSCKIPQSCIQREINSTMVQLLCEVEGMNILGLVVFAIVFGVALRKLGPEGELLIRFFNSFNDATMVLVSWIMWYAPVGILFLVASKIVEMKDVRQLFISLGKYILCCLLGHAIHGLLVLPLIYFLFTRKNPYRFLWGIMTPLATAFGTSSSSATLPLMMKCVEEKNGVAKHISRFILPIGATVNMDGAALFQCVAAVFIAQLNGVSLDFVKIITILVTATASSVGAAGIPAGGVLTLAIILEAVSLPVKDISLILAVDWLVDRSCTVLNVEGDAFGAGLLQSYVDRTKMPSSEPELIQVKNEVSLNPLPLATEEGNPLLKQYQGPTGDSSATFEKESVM
Protocol: (§1) Uptake was halted by washing 3 times with 4 °C ND96 buffer. Oocytes were then lysed in 0.1% Triton X-100, and radioactivity was counted via liquid scintillation. Dose response curves were generated by fitting fractional inhibition (I) to the expression I = Imax × [inhibitor]/([inhibitor] + IC50).
(§2) (A) SLC1A4 dose response curves for substrate activated anion currents using two-electrode voltage clamp of Xenopus lavies oocytes (−30 mV). […] (B) SLC1A5 dose response curve for substrate activated anion currents using two-electrode voltage clamp (−30 mV). […] Extracellular solutions contained 50 mM NaSCN.

SLC1A4 [2] = target: T2, SLC1A4 (Homo sapiens, UniProt P43007); assay: TEVC block of anion leak conductance in oocytes; assay type: cell-based
T2 construct: expressed in transfected cells; host or cells: Xenopus laevis oocytes (cRNA injection)
T2 sequence (P43007 1-532): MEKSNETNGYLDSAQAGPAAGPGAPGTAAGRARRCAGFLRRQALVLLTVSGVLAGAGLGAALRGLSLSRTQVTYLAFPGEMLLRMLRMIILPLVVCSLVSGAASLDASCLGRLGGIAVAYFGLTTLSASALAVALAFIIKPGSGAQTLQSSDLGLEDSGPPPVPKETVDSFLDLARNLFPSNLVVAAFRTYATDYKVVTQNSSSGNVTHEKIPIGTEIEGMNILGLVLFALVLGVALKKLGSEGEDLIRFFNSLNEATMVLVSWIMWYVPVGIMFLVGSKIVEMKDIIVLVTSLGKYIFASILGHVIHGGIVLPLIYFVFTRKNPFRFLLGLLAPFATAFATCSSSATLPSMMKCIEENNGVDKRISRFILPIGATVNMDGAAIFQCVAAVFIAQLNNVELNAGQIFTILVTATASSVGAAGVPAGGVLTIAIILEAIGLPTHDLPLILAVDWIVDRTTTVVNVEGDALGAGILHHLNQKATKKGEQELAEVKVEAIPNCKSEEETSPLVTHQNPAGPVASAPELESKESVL
Source text: (§3) The currents induced by substrates and blocked by hydroxyproline analogs shared a reversal potential shown in the current/voltage relationship consistent with the conductance originating from the same ion pore (Figure 3, inset). […] The observed dose–response relationships are independent of competing substrates, and thus provide a direct measure of the equilibrium inhibition constant (Ki). Each synthetic hydroxyproline analog was functionally assessed for its capacity to inhibit SLC1A4 and SLC1A5 leak currents with affinities reported in Table 1 as determined or approximated Ki.
(§4) Two-electrode voltage clamp (TEVC) transporter currents were recorded with a GeneClamp 500 amplifier and Digidata 1320A analog–digital interface (Molecular Devices, San Jose, CA, USA). Electrodes (0.2–1.0 MΩ) were filled with 3M KCl and the recording chamber was grounded with an agar bridge. Data were acquired with Axograph (v1.7.6) and LabChart (v7) and analyzed with Kaleidagraph software (v4.1) (Synergy, Reading, PA, USA). Uncoupled anion currents associated with the transport of substrate and block of SLC1A4 or SLC1A5 mediated leak conductance were recorded in the presence of Ringer with 50% substitution of NaCl by NaSCN to amplify the non-transported anion conductance.
(§5) Figure 3 AHPCs block a leak current in SLC1A4 and SLC1A5. […] Inset (A): The current and voltage relationship for SLC1A4 currents activated by Ala or blocked by 14b are determined by subtracting voltage jumps in buffer.

mSLC1A5 = target: T3, mSLC1A5 (Mus musculus, UniProt P51912); assay: TEVC block of anion leak conductance in oocytes; assay type: cell-based
T3 construct: expressed in transfected cells; host or cells: Xenopus laevis oocytes (cRNA injection)
T3 sequence (P51912 1-553): T1 sequence (P51912 1-553)
Source text: as §3, §4, §5

SLC1A4 [3] = target: T2, SLC1A4; assay: [3H]L-alanine heteroexchange (trans-stimulation) in preloaded oocytes; assay type: cell-based; settings: 3 µM BPOHP, 1 mM L-alanine
Protocol: as §1

SLC1A5 [4] = target: T1, SLC1A5; assay: as above; assay type: cell-based; settings: 3 µM BPOHP, 1 mM L-alanine
Protocol: as §1

SLC1A4 [5] = settings: concentrations up to 1 mM, oocytes expressing SLC1A4; cited from earlier work
ASCT = settings: extracellular 300 µM; cited from earlier work
SLC1A4 (hASCT1) = target: T4, SLC1A4 (hASCT1) (Homo sapiens, UniProt P43007); assay: TEVC substrate-induced SCN- anion currents in Xenopus oocytes; assay type: cell-based
T4 construct: expressed in transfected cells; host or cells: Xenopus laevis oocytes (cRNA injection)
T4 sequence (P43007 1-532): T2 sequence (P43007 1-532)
Protocol: (§6) Additionally, 4-HP applied at 1 mM was used to assess activity at the glutamate transporters SLC1A3 or SLC1A1.
as §1, §4, §2

SLC1A5 (mASCT2) = target: T5, SLC1A5 (mASCT2) (Mus musculus, UniProt P51912); assay: as above; assay type: cell-based
T5 construct: expressed in transfected cells; host or cells: Xenopus laevis oocytes (cRNA injection)
T5 sequence (P51912 1-553): T1 sequence (P51912 1-553)
Protocol: as §6, §1, §4, §2

[6] = substrate: C[C@H](N)C(=O)O; assay: cells, lysate or membranes; settings: other: SLC1A4; substrate activated anion currents, TEVC −30 mV, 50 mM NaSCN, Michaelis-Menten fit
[7] = substrate: O=C(O)[C@@H]1C[C@@H](O)CN1; assay: TEVC substrate-induced SCN- anion currents in Xenopus oocytes; assay type: cell-based, human; settings: other: SLC1A4; substrate activated anion currents, TEVC −30 mV, 50 mM NaSCN, Michaelis-Menten fit
[8] = substrate: O=C(O)[C@H]1NCC[C@@H]1O; assay: as above; assay type: cell-based, human; settings: other: SLC1A4; substrate activated anion currents, TEVC −30 mV, 50 mM NaSCN, Michaelis-Menten fit
[9] = substrate: NC(=O)CC[C@H](N)C(=O)O; assay: as above; assay type: cell-based, mouse; settings: other: SLC1A5; substrate activated anion currents, TEVC −30 mV, 50 mM NaSCN, Michaelis-Menten fit
[10] = substrate: O=C(O)[C@@H]1C[C@@H](O)CN1; assay: as above; assay type: cell-based, mouse; settings: other: SLC1A5; substrate activated anion currents, TEVC −30 mV, 50 mM NaSCN, Michaelis-Menten fit
[11] = substrate: O=C(O)[C@H]1NCC[C@@H]1O; assay: as above; assay type: cell-based, mouse; settings: other: SLC1A5; substrate activated anion currents, TEVC −30 mV, 50 mM NaSCN, Michaelis-Menten fit
[12] = from dose–response of blocked anion conductance, compounds tested only once without standard error, read-out: SLC1A4 Ki
[13] = mSLC1A5, from dose–response of blocked anion conductance, compounds tested only once without standard error, read-out: SLC1A5 Ki
[14] = from dose–response of blocked anion conductance, compounds tested only once without standard error

## O=C(O)[C@H]1NCC[C@@H]1O [3-HP, trans-3-hydroxy-L-proline]
SLC1A5 [1]
  IC50: 39 µM

## CC1CNC(C(=O)O)C1O [10a, trans-3-hydroxy-cis-4-methyl-L-proline]
SLC1A4 [2]; SLC1A4
  block of anion leak conductance / inhibition: no inhibition of transport
SLC1A4 [2]; [12]
  Ki: 1050 ± 110 µM
mSLC1A5; SLC1A5
  block of anion leak conductance / inhibition: no inhibition of transport
mSLC1A5; [13]
  Ki: 1150 ± 283 µM

## CC1C(O)CNC1C(=O)O (centres unmarked) [10b]
SLC1A4 [2]; [12]
  Ki: 564 ± 149 µM
mSLC1A5; [13]
  Ki: 922 ± 316 µM

## O=C(O)C1NCC(c2ccccc2)C1O (centres unmarked) [10c]
SLC1A4 [2]; [12]
  Ki: ~600 µM
mSLC1A5; [13]
  Ki: ~600 µM

## O=C(O)C1NCC(O)C1c1ccccc1 [10d, cis-3-phenyl-4-trans-hydroxy-L-proline]
SLC1A4 [2]; [12]
  Ki: 332 ± 74 µM
mSLC1A5; [13]
  Ki: 1130 ± 318 µM

## O=C(O)C1NCC(Oc2ccccc2)C1O (centres unmarked) [12a]
SLC1A4 [2]; [12]
  Ki: 150 ± 43 µM
mSLC1A5; [13]
  Ki: 141 ± 20 µM

## O=C(O)C1NCC(O)C1Oc1ccccc1 (centres unmarked) [12b]
SLC1A4 [2]; [12]
  Ki: 594 ± 191 µM
mSLC1A5; [13]
  Ki: 502 ± 110 µM

## O=C(O)C1NCC(Oc2ccccc2)C1O [12c, (2S,3R,4S)-3-hydroxy-4-phenoxypyrrolidin-2-carboxylate]
SLC1A4 [2]; [12]
  Ki: ~150 µM
mSLC1A5; [13]
  Ki: ~150 µM

## CC(C)O[C@@H]1CN[C@H](C(=O)O)[C@H]1O [14b, trans-3-hydroxy-cis-4-isopropoxy-L-proline]
SLC1A4 [2]; SLC1A4
  block of anion leak conductance / inhibition: block the anion conductance
mSLC1A5; SLC1A5
  block of anion leak conductance / inhibition: block the anion conductance

## O=C(O)[C@H]1NC[C@@H](OCc2ccccc2)[C@@H]1O [14c]
SLC1A4 [2]; SLC1A4
  block of anion leak conductance / inhibition: block the anion conductance
  fold higher affinity than 12a: ~ 6 fold
SLC1A4 [2]; SLC1A4, read-out: Ki
  Ki: < 100 µM
mSLC1A5; SLC1A5
  block of anion leak conductance / inhibition: block the anion conductance
  fold higher affinity than 12a: ~ 6 fold
mSLC1A5; SLC1A5, read-out: Ki
  Ki: < 100 µM

## CO[C@H]1CN[C@H](C(=O)O)[C@@H]1O [17a]
SLC1A4 [2]; SLC1A4, read-out: Ki
  Ki: > 500 µM
mSLC1A5; SLC1A5, read-out: Ki
  Ki: > 500 µM

## CC(C)O[C@H]1CN[C@H](C(=O)O)[C@@H]1O [17b]
SLC1A4 [2]; [12]
  Ki: 505 ± 105 µM
mSLC1A5; [13]
  Ki: ~400 µM

## O=C(O)[C@H]1NC[C@H](OCc2ccccc2)[C@H]1O [17c, cis-3-hydroxy-trans-4-benzyloxy-L-proline]
SLC1A4 [2]; SLC1A4, read-out: Ki
  Ki: > 500 µM
mSLC1A5; SLC1A5, read-out: Ki
  Ki: > 500 µM

## C[C@H](N)C(=O)O [L-Ala, L-alanine, reference compound]
SLC1A4 [3]
  [3H]L-alanine exchange: induces exchange
SLC1A5 [4]
  [3H]L-alanine exchange: induces exchange

## O=C(O)[C@@H]1CCCN1 [L-proline]
SLC1A4 [5]
  chloride currents: does not elicit detectable chloride currents
ASCT
  heteroexchange release of intracellular radiolabeled ASCT substrates: capable of inducing heteroexchange release

## O=C(O)[C@@H]1C[C@H](O)CN1 [compound 1, cis-4-hydroxy-L-proline, reference compound]
SLC1A4 (hASCT1)
  substrate currents: did not induce detectable substrate currents
SLC1A5 (mASCT2)
  substrate currents: did not induce detectable substrate currents
SLC1A4 [2]; SLC1A4 (transporter not given)
  concentration at which leak anion current is blocked: above 500 µM
mSLC1A5; SLC1A5 (transporter not given)
  concentration at which leak anion current is blocked: above 500 µM

## C[C@]1(O)CN[C@H](C(=O)O)C1 [compound 26, cis-4-methyl-trans-4-hydroxy-L-proline]
SLC1A4 [2]; [14]
  SLC1A4 Ki (µM): No Block

## C[C@@]1(O)CN[C@H](C(=O)O)C1 [compound 27, cis-4-hydroxy-trans-4-methyl-L-proline]
SLC1A4 [2]; [14]
  SLC1A4 Ki (µM): No Block

B1: SLC1A4 (hASCT1) (Homo sapiens) (protein)
chain: T2 sequence (P43007 1-532)
notes: expressed in transfected cells; host or cells: Xenopus laevis oocytes (cRNA injection)
[6]
  Km: 40.0 ± 1.8 µM and 40.3 µM
[7]
  Km: 17.1 ± 0.8 µM
[8]
  Km: 13.5 ± 1.8 µM

B2: SLC1A5 (mASCT2) (Mus musculus) (protein)
chain: T1 sequence (P51912 1-553)
notes: as for B1
[9]
  Km: 47.4 ± 4.6 µM
[10]
  Km: 76.3 ± 11.0 µM
[11]
  Km: 28.6 ± 6.4 µM
